Target: T1, GHSR-1a (HEK293/GHSR1a cell line) (Homo sapiens, UniProt Q92847)
T1 construct: expressed in transfected cells; host or cells: HEK293/GHSR1a cell line
Test: Ghrelin antagonist potency (IC50) with calcium FLIPR assay, ghrelin 10 nM
Assay type: cell-based
Settings: ghrelin antagonist potency, read-out: IC50 (Activity)
Procedure: Evaluation of Ghrelin Agonist (EC50) and Antagonist Potency (IC50) with Calcium FLIPR Assay:
The intracellular calcium assay was carried out in a 384-well format FLIPR™ (Molecular Device) HEK293/GHSR1a cell line. Cells were seeded 24 hr prior to the experiments at an optimal density per well. Preincubation with selected calcium dye lasted for 30-60 min at room temperature or 37° C. Test compounds, dissolved in DMSO, were added at the appropriate time and incubated for 15 min followed by the addition of ghrelin with FlexStation or FLIPR. Relative fluorescence was monitored by the FLIPR™ Molecular Device. EC50 and IC50 values were estimated from dose-response data using GraphPad Prism software. To check for GHSR-1a agonism, the compound was added at t=20 sec. and the calcium response was followed for 2 minutes. To check for GHSR-1a antagonism, the compound and Ghrelin (10 nM) were added to the cells at t=20 sec. and the calcium response was measured for 2 minutes. The potency of the antagonist was calculated by its ability to reduce the ghrelin response. Dose-response curves were made for relevant antagonists.

T1 sequence (Q92847 whole entry): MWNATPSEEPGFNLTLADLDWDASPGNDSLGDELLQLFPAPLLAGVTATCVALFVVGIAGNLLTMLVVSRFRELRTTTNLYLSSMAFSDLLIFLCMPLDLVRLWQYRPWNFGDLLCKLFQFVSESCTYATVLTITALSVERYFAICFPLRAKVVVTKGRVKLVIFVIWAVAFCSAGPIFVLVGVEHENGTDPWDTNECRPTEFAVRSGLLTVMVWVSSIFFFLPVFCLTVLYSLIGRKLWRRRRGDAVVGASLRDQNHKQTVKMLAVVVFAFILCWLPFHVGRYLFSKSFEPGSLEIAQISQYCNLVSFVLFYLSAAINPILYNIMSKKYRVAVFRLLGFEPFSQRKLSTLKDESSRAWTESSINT

Compound | IC50
C[C@H](NC(=O)N(C)c1ccc(S(=O)(=O)Nc2ccc(CC(C)(C)N)cc2)cc1)c1ccc(-c2cnccn2)c(Cl)c1Cl [H0942, (S)-N-(4-(2-amino-2-methylpropyl)phenyl)-4-(3-(1-(2,3-dichloro-4-(pyrazin-2-yl)phenyl)ethyl)-1-methylureido) benzenesulfonamide] | 2.04 µM
COc1ccc([C@H](C)NC(=O)Nc2ccc(S(=O)(=O)Nc3ccccc3)cc2)c(Cl)c1Cl [H0950, (S)-4-(3-(1-(2,3-dichloro-4-methoxyphenyl)ethyl)ureido)-N-phenylbenzenesulfonamide] | 20.8 µM
COc1ccc([C@H](C)NC(=O)Nc2ccc(S(=O)(=O)Nc3ccc(C)cc3)cc2)c(Cl)c1Cl [H0953, (S)-4-(3-(1-(2,3-dichloro-4-methoxyphenyl)ethyl)ureido)-N-(p-tolyl)benzenesulfonamide] | > 30 µM
CC(=O)N(C)S(=O)(=O)c1ccc(NC(=O)N[C@@H](C)c2ccc(-c3cnccn3)c(Cl)c2Cl)cc1 [H0954, (S)-N-((4-(3-(1-(2,3-dichloro-4-(pyrazin-2-yl)phenyl)ethyl)ureido)phenyl)sulfonyl)-N-methylacetamide] | > 30 µM
Cc1ccc(CS(=O)(=O)c2ccc(NC(=O)N[C@@H](C)c3ccc(-c4cnccn4)c(Cl)c3Cl)cc2)cc1 [H0963, (S)-1-(1-(2,3-dichloro-4-(pyrazin-2-yl)phenyl)ethyl)-3-(4-((4-methylbenzyl)sulfonyl)phenyl)urea] | > 30 µM
C[C@H](NC(=O)Nc1ccc(S(=O)(=O)Nc2ccccc2)cc1)c1cccc(Cl)c1Cl [H0965, (S)-4-(3-(1-(2,3-dichlorophenyl)ethyl)ureido)-N-phenylbenzenesulfonamide] | > 30 µM
Cc1ccc(NS(=O)(=O)c2ccc(NC(=O)N[C@@H](C)c3cccc(Cl)c3Cl)cc2)cc1 [H0966, (S)-4-(3-(1-(2,3-dichlorophenyl)ethyl)ureido)-N-(p-tolyl)benzenesulfonamide] | 6.58 µM
COc1ccc(C(C)(C)NC(=O)Nc2ccc(S(=O)(=O)Nc3ccc(CC(C)(C)N)cc3)cc2)c(Cl)c1Cl [H0975, N-(4-(2-amino-2-methylpropyl)phenyl)-4-(3-(2-(2,3-dichloro-4-methoxyphenyl)propan-2-yl)ureido)benzenesulfonamide] | 0.0095 µM
CN(C)C(C)(C)Cc1ccc(CS(=O)(=O)c2ccc(NC(=O)NCc3cccc(Cl)c3Cl)cc2)cc1 [H0981, 1-(2,3-dichlorobenzyl)-3-(4-((4-(2-(dimethylamino)-2-methylpropyl)benzyl)sulfonyl)phenyl)urea] | 0.0095 µM
COc1ccc([C@H](C)NC(=O)Nc2ccc(S(=O)(=O)Nc3ccc4[nH]ccc4c3)cc2)c(Cl)c1Cl [H0990, (S)-4-(3-(1-(2,3-dichloro-4-methoxyphenyl)ethyl)ureido)-N-(1H-indol-5-yl) benzenesulfonamide] | 0.823 µM
C[C@H](NC(=O)Nc1ccc(S(=O)(=O)Nc2ccc3c(c2)CCCN3)cc1)c1cccc(Cl)c1Cl [H1003, (S)-4-(3-(1-(2,3-dichlorophenyl)ethyl)ureido)-N-(1,2,3,4-tetrahydroquinolin-6-yl)benzenesulfonamide] | 2.02 µM
COc1ccc([C@H](C)NC(=O)Nc2ccc(S(=O)(=O)Nc3ccc4c(c3)CCCN4)cc2)c(Cl)c1Cl [H1008, (S)-4-(3-(1-(2,3-dichloro-4-methoxyphenyl)ethyl)ureido)-N-(1,2,3,4-tetrahydroquinolin-6-yl)benzenesulfonamide] | 6.38 µM
COc1ccc([C@H](C)NC(=O)Nc2ccc(S(=O)(=O)Cc3ccc4c(c3)CCN(S(C)(=O)=O)C4)cc2)c(Cl)c1Cl [H1026, (S)-1-(1-(2,3-dichloro-4-methoxyphenyl)ethyl)-3-(4-(((2-(methylsulfonyl)-1,2,3,4-tetrahydroisoquinolin-6-yl)methyl)sulfonyl)phenyl)urea] | 14.9 µM
COc1ccc([C@H](C)NC(=O)Nc2ccc(S(=O)(=O)Nc3ccc4c(c3)CCN(S(C)(=O)=O)C4)cc2)c(Cl)c1Cl [H1033, (S)-4-(3-(1-(2,3-dichloro-4-methoxyphenyl)ethyl)ureido)-N-(2-(methylsulfonyl)-1,2,3,4-tetrahydroisoquinolin-6-yl)benzenesulfonamide] | 3.02 µM
C[C@H](NC(=O)Nc1ccc(S(=O)(=O)Cc2ccc3c(c2)NCC3)cc1)c1cccc(Cl)c1Cl [H1045, (S)-1-(1-(2,3-dichlorophenyl)ethyl)-3-(4-((indolin-6-ylmethyl)sulfonyl)phenyl)urea] | 2.74 µM
O=C(NCc1cccc(Cl)c1Cl)Nc1ccc(S(=O)(=O)Cc2ccc3c(c2)NCC3)cc1 [H1046, 1-(2,3-dichlorobenzyl)-3-(4-((indolin-6-ylmethyl)sulfonyl)phenyl)urea] | 1.99 µM
O=C(NCc1cccc(Cl)c1Cl)Nc1ccc(S(=O)(=O)Cc2ccc3c(c2)CCN3)cc1 [H1048, 1-(2,3-dichlorobenzyl)-3-(4-((indolin-5-ylmethyl)sulfonyl)phenyl)urea] | 16.8 µM
C[C@H](NC(=O)Nc1ccc(S(=O)(=O)NCCC2CCNCC2)cc1)c1cccc(Cl)c1Cl [H1052, (S)-4-(3-(1-(2,3-dichlorophenyl)ethyl)ureido)-N-(2-(piperidin-4-yl)ethyl)benzenesulfonamide] | 0.467 µM

Compound | IC50
COC(=O)c1ccc(CS(=O)(=O)c2ccc(NC(=O)N[C@@H](C)c3cccc(Cl)c3Cl)cc2)cc1 [H1058, methyl (S)-4-(((4-(3-(1-(2,3-dichlorophenyl)ethyl)ureido)phenyl)sulfonyl)methyl)benzoate] | 20 µM
C[C@H](NC(=O)Nc1ccc(S(=O)(=O)Cc2ccc(C(=O)O)cc2)cc1)c1cccc(Cl)c1Cl [H1059] | > 30 µM
COC(=O)c1ccc(NS(=O)(=O)c2ccc(NC(=O)N[C@@H](C)c3cccc(Cl)c3Cl)cc2)cc1 [H1061, methyl (S)-4-((4-(3-(1-(2,3-dichlorophenyl)ethyl)ureido)phenyl)sulfonamido)benzoate] | 2.87 µM
C[C@H](NC(=O)Nc1ccc(S(=O)(=O)Cc2ccc(-c3cccnc3)cc2)cc1)c1cccc(Cl)c1Cl [H1070, (S)-1-(1-(2,3-dichlorophenyl)ethyl)-3-(4-((4-(pyridin-3-yl)benzyl)sulfonyl)phenyl)urea] | 5.29 µM
C[C@H](NC(=O)Nc1ccc(S(=O)(=O)Cc2ccc(C(N)=O)cc2)cc1)c1cccc(Cl)c1Cl [H1073, (S)-4-(((4-(3-(1-(2,3-dichlorophenyl)ethyl)ureido)phenyl)sulfonyl)methyl)benzamide] | > 30 µM
COC(=O)Cc1ccc(NS(=O)(=O)c2ccc(NC(=O)N[C@@H](C)c3cccc(Cl)c3Cl)cc2)cc1 [H1075, methyl (S)-2-(4-((4-(3-(1-(2,3-dichlorophenyl)ethyl)ureido)phenyl)sulfonamido)phenyl)acetate] | 3.02 µM
C[C@H](NC(=O)Nc1ccc(S(=O)(=O)CC2CC2)cc1)c1cccc(Cl)c1Cl [H1078, (S)-1-(4-((cyclopropylmethyl)sulfonyl)phenyl)-3-(1-(2,3-dichlorophenyl)ethyl)urea] | 3.58 µM
C[C@H](NC(=O)Nc1ccc(S(=O)(=O)C(C)(C)c2ccc3c(c2)CCNC3)cc1)c1cccc(Cl)c1Cl [H1081, (S)-1-(1-(2,3-dichlorophenyl)ethyl)-3-(4-((2-(1,2,3,4-tetrahydroisoquinolin-6-yl)propan-2-yl)sulfonyl)phenyl)urea] | 1.24 µM
COc1cccc(CS(=O)(=O)c2ccc(NC(=O)N[C@@H](C)c3cccc(Cl)c3Cl)cc2)c1 [H1082, (S)-1-(1-(2,3-dichlorophenyl)ethyl)-3-(4-((3-methoxybenzyl)sulfonyl)phenyl)urea] | > 30 µM
C[C@H](NC(=O)Nc1ccc(S(=O)(=O)Cc2cccc(O)c2)cc1)c1cccc(Cl)c1Cl [H1084, (S)-1-(1-(2,3-dichlorophenyl)ethyl)-3-(4-((3-hydroxybenzyl)sulfonyl)phenyl)urea] | 3.5 µM
COC(=O)c1cccc(CS(=O)(=O)c2ccc(NC(=O)N[C@@H](C)c3cccc(Cl)c3Cl)cc2)c1 [H1087, methyl (S)-3-(((4-(3-(1-(2,3-dichlorophenyl)ethyl)ureido)phenyl)sulfonyl)methyl)benzoate] | 8.18 µM
C[C@H](NC(=O)Nc1ccc(S(=O)(=O)Nc2ccc(CCO)cc2)cc1)c1ccccc1Cl [H1095, (S)-4-(3-(1-(2-chlorophenyl)ethyl)ureido)-N-(4-(2-hydroxyethyl)phenyl) benzenesulfonamide] | 1.43 µM
C[C@H](NC(=O)Nc1ccc(S(=O)(=O)CCN2CCOCC2)cc1)c1cccc(Cl)c1Cl [H1096, (S)-1-(1-(2,3-dichlorophenyl)ethyl)-3-(4-((2-morpholinoethyl)sulfonyl)phenyl)urea] | ≥ 30 µM
C[C@H](NC(=O)Nc1ccc(S(=O)(=O)Cc2ccc(C#N)cc2)cc1)c1cccc(Cl)c1Cl [H1101, (S)-1-(4-((4-cyanobenzyl)sulfonyl)phenyl)-3-(1-(2,3-dichlorophenyl)ethyl)urea] | ≥ 30 µM
C[C@H](NC(=O)Nc1ccc(S(=O)(=O)Nc2ccc(-c3ncc[nH]3)cc2)cc1)c1cccc(Cl)c1Cl [H1110, (S)-N-(4-(1H-imidazol-2-yl)phenyl)-4-(3-(1-(2,3-dichlorophenyl)ethyl)ureido) benzenesulfonamide] | 0.95 µM
C[C@H](NC(=O)Nc1ccc(S(=O)(=O)Nc2ccc(N)nc2)cc1)c1cccc(Cl)c1Cl [H1126, (S)-N-(6-aminopyridin-3-yl)-4-(3-(1-(2,3-dichlorophenyl)ethyl)ureido) benzenesulfonamide] | 0.183 µM
O=C(NCc1ccccc1)Nc1ccc(S(=O)(=O)Cc2ccc(CO)cc2)cc1 [H1131, 1-benzyl-3-(4-((4-(hydroxymethyl)benzyl)sulfonyl)phenyl)urea] | ≥ 30 µM

From patent US10501479B2, “Benzenesulfonyl-asymmetric ureas and medical uses thereof” (HELSINN HEALTHCARE SA, priority 2016, dated 2019)
